In patent US20030215462A1, “Use of UGT inhibitors to increase bioavailability” (priority 2001, published 2003):

Assays:
[1] = target: T1, UGT1A1 (Homo sapiens, UniProt P22309); experiment: in vitro
T1 sequence (P22309 26-533): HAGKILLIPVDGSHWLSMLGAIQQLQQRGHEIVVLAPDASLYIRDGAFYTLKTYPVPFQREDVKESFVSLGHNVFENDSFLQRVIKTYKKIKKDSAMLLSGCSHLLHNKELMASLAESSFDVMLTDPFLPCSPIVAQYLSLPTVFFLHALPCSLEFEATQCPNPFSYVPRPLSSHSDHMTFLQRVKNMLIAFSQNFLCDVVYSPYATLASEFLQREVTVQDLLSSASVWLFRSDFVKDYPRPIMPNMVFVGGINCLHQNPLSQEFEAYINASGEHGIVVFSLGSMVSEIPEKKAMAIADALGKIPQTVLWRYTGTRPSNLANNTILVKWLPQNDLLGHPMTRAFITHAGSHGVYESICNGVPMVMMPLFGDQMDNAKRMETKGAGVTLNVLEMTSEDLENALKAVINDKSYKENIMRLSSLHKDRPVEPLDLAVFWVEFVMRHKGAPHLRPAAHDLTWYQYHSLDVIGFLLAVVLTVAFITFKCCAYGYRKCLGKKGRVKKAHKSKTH
Procedure: (§1) Compounds were eluted using a binary solvent gradient system. Solvent A was water brought to pH 8 with NH4OH. Solvent B was methanol. Solvent flow rate was 1 ml/min and the column temperature was maintained at 50° C. Detection was at 280 nm. […] The system was then returned to the initial conditions and equilibrated for 3 min.

[2] = target: T1, UGT1A1; experiment: Inhibition of raloxifene glucuronidation by recombinant UGT1A1 Supersomes; details: UGT1A1
Procedure: as §1

[3] = system: UGT enzymes of human liver microsomes; experiment: Inhibition of raloxifene glucuronidation (G1, G2) in human liver microsomes; format: biochemical; details: raloxifene 50 μM; for % of control metabolism (SD, n = 3), raloxifene glucuronide G1 / % of control metabolism (SD, n = 3), raloxifene glucuronide G2: human liver microsomes 250 μg/ml, 15 min
Source text: Compounds were eluted using a binary solvent gradient system. […] Solvent B was methanol. […] Detection was at 280 nm.

[4] = target: T2, UGT1A3 (Homo sapiens, UniProt P35503); experiment: Inhibition of raloxifene glucuronidation by recombinant UGT1A3 Supersomes; details: UGT1A3
T2 sequence (P35503 29-534): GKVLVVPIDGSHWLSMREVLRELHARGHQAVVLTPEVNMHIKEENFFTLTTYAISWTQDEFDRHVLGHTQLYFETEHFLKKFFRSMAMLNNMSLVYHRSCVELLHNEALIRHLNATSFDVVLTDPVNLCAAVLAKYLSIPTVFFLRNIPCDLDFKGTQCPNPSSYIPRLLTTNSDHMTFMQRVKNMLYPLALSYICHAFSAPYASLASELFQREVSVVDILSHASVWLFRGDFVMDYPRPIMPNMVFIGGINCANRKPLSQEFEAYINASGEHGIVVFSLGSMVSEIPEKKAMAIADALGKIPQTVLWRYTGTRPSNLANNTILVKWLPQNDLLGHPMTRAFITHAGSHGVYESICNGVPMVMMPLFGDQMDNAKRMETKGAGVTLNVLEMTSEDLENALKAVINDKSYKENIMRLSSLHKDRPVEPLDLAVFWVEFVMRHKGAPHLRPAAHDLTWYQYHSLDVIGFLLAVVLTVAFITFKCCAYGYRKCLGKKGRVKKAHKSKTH
Procedure: as §1

[5] = system: T3, UGT enzymes of human liver microsomes; experiment: Inhibition of 7-HFC glucuronidation in human liver microsomes; format: biochemical; details: inhibitor 500 μM; 7-HFC 50 μM, human liver microsomes 100 μg/ml, 15 min
T3 construct: percentage of control metabolism, 7-HFC glucuronidation; percentage of control metabolism, 7-HFC glucuronidation

[6] = target: T4, UGT1A9 (Homo sapiens, UniProt O60656); experiment: Inhibition of raloxifene glucuronidation by recombinant UGT1A9 Supersomes; details: for activity at 15 min, 50 µM: human, Supersomes with recombinant human UGT1A9, pH 7.5, probe raloxifene 50 μM
T4 sequence (O60656 26-530): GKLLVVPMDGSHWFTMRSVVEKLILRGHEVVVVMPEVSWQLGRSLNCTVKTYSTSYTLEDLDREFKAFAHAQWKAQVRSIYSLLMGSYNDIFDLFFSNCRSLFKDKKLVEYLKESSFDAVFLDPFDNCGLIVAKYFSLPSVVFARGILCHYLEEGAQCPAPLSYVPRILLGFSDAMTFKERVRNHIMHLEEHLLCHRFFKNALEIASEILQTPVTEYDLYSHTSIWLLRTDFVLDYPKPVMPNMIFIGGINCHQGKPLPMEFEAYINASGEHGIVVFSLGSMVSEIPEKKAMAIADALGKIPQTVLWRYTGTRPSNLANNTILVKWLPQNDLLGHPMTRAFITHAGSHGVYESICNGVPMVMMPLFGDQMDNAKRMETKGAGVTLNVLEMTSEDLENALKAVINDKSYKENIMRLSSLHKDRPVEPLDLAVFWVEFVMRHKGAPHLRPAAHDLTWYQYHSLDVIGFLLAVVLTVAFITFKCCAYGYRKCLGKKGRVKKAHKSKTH
Procedure: as §1

[7] = target: T2, UGT1A3; experiment: in vitro
Procedure: as §1

[8] = target: T5, UGT1A10 (Homo sapiens, UniProt Q9HAW8); experiment: in vitro; details: pH 7.5, % of control metabolism
T5 sequence (Q9HAW8 26-530): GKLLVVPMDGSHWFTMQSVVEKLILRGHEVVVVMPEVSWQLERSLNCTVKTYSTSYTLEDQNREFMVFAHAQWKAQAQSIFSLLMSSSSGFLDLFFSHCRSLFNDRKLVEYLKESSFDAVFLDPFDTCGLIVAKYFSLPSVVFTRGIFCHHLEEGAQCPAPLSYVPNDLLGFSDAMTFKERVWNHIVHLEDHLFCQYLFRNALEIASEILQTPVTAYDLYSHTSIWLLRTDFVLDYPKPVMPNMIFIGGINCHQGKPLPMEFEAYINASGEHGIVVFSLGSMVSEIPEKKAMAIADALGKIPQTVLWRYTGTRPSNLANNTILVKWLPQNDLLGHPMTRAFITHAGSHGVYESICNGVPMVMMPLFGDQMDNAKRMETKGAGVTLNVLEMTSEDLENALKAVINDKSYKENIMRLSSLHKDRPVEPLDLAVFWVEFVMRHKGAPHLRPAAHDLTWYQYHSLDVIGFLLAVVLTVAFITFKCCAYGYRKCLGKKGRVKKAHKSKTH
Procedure: as §1

[9] = target: T5, UGT1A10; experiment: Inhibition of raloxifene glucuronidation by recombinant UGT1A10 Bacculosomes; details: UGT1A10
Procedure: as §1

[10] = target: T4, UGT1A9; experiment: in vitro; details: pH 7.5, % of control metabolism
Procedure: as §1

[11] = pH 7.5, % of control metabolism, raloxifene G1
[12] = pH 7.5, % of control metabolism, raloxifene G2
[13] = pH 7.5, Inhibition of raloxifene glucuronidation, G1, UGT1A1
[14] = pH 7.5, Inhibition of raloxifene glucuronidation, G2, UGT1A1
[15] = pH 7.5, Inhibition of raloxifene glucuronidation, G1, UGT1A3
[16] = pH 7.5, Inhibition of raloxifene glucuronidation, G2, UGT1A3

COc1c(C)c2c(c(O)c1C/C=C(\C)CCC(=O)O)C(=O)OC2 [Mycophenolic acid, reference compound] was tested, and the activity at 15 min, 50 µM [1, 11] was 90%, the activity at 15 min, 50 µM [1, 12] was 89% and the activity at 15 min, 50 µM [1, 13] was 90%. For the same compound, the activity at 15 min, 50 µM [1, 14] was 89%, the “inhibition of raloxifene glucuronidation, in words” value (from here on “inhibition … in words”) [2] was “poor inhibitors” and the “% of control metabolism (SD, n = 3), raloxifene glucuronide G1” value ([3]; inhibitor 100 μM) was 89 (3) %. For the same compound, the “% of control metabolism (SD, n = 3), raloxifene glucuronide G1” value ([3]; inhibitor 500 μM) was 43 (5) %, the “% of control metabolism (SD, n = 3), raloxifene glucuronide G2” value ([3]; inhibitor 100 μM) was 89 (2) % and the “% of control metabolism (SD, n = 3), raloxifene glucuronide G2” value ([3]; inhibitor 500 μM) was 47 (1) %. For the same compound, the “% of control metabolism, raloxifene G1” value ([3]; inhibitor 100 μM) was 89 (3) %, the “% of control metabolism, raloxifene G2” value ([3]; inhibitor 100 μM) was 89 (2) % and the “inhibition … in words” value [4] was “poor inhibitors”. For the same compound, the “% of control metabolism (SD, n = 3), 7-HFC glucuronidation” value [5] was 83 (2) %, the “inhibition … in words” value ([6]; UGT1A9) was “poor inhibitors” and the activity at 15 min, 50 µM ([6]; formation of glucuronide G1, % of control metabolism, raloxifene G1, UGT1A9, inhibitor 50 μM) was 81%. For the same compound, the activity at 15 min, 50 µM ([6]; formation of glucuronide G2, % of control metabolism, raloxifene G2, UGT1A9, inhibitor 50 μM) was 83%, the “Inhibition of raloxifene glucuronidation, UGT1A9, second line per inhibitor (G2)” value ([6]; second line (G2, metabolite not given), inhibitor 50 μM, raloxifene 50 μM, 250 μg/ml Supersomes, 1 mM UDPGA, 15 min) was 83 (3) and the activity at 15 min, 50 µM [7, 11] was 95%. The activity at 15 min, 50 µM [7, 12] was 87%, the activity at 15 min, 50 µM [7, 15] was 95% and the activity at 15 min, 50 µM [7, 16] was 87%. The activity at 15 min, 50 µM ([8]; raloxifene G1) was 110%, the activity at 15 min, 50 µM ([8]; raloxifene G2) was 98% and the “inhibition … in words” value [9] was “poor inhibitors”.
COc1cc(C2Oc3cc([C@H]4Oc5cc(O)cc(O)c5C(=O)[C@@H]4O)ccc3OC2CO)ccc1O (stereo partly drawn) [Silibinin] was tested, and the activity at 15 min, 10 µM [1, 11] was 69%, the activity at 15 min, 25 µM [1, 11] was 46% and the activity at 15 min, 50 µM [1, 11] was 18%. It also gave an activity at 15 min, 10 µM [1, 12] of 63%, an activity at 15 min, 25 µM [1, 12] of 33% and an activity at 15 min, 50 µM [1, 12] of 7%. For the same compound, the activity at 15 min, 25 µM [1, 13] was 46%, the activity at 15 min, 50 µM [1, 13] was 18% and the activity at 15 min, 25 µM [1, 14] was 33%. For the same compound, the activity at 15 min, 50 µM [1, 14] was 7%, the activity at 15 min, 10 µM ([10]; raloxifene G1) was 93% and the activity at 15 min, 25 µM ([10]; raloxifene G1) was 74%. The activity at 15 min, 50 µM ([10]; raloxifene G1) was 59%, the activity at 15 min, 10 µM ([10]; raloxifene G2) was 72% and the activity at 15 min, 25 µM ([10]; raloxifene G2) was 47%. The activity at 15 min, 50 µM ([10]; raloxifene G2) was 22%, the activity at 15 min, 10 µM [7, 11] was 81% and the activity at 15 min, 25 µM [7, 11] was 59%. The activity at 15 min, 50 µM [7, 11] was 37%, the activity at 15 min, 10 µM [7, 12] was 56% and the activity at 15 min, 25 µM [7, 12] was 32%. For the same compound, the activity at 15 min, 50 µM [7, 12] was 10%, the activity at 15 min, 10 µM [7, 15] was 81% and the activity at 15 min, 25 µM [7, 15] was 58%. The activity at 15 min, 50 µM [7, 15] was 37%, the activity at 15 min, 10 µM [7, 16] was 56% and the activity at 15 min, 25 µM [7, 16] was 32%. For the same compound, the activity at 15 min, 50 µM [7, 16] was 10%, the activity at 15 min, 50 µM ([8]; raloxifene G1) was 56% and the activity at 15 min, 50 µM ([8]; raloxifene G2) was 64%.
